In assay [1] the target is Sodium-dependent serotonin transporter (Rattus norvegicus, UniProt P31652). Put plainly: Binding affinity at rat SERT.
Assay [2] deals with T1, Histamine H3 receptor (Homo sapiens, UniProt Q9Y5N1). Put plainly: Binding affinity at human histamine H3 receptor.
In assay [3] the target is Sodium-dependent serotonin transporter (Homo sapiens, UniProt P31645). Kind of assay: Binding affinity at human SERT.
Assay [4] addresses Histamine H2 receptor (Homo sapiens) (UniProt P25021). Kind of assay: Binding affinity at histamine H2 receptor at 1 uM.
For assay [5], the target named is T2, Sodium-dependent noradrenaline transporter (Homo sapiens, UniProt P23975). Kind of assay: Binding affinity at human noradrenaline transporter.
Assay [6] has as its target T2, Sodium-dependent noradrenaline transporter. Kind of assay: Binding affinity at noradrenaline transporter at 1 uM.
Assay [7] addresses T1, Histamine H3 receptor. Put plainly: Antagonist activity at human histamine H3 receptor. Type of assay: functional. The note with it: read-out: pA2 (converted).

T1 sequence (Q9Y5N1 whole entry): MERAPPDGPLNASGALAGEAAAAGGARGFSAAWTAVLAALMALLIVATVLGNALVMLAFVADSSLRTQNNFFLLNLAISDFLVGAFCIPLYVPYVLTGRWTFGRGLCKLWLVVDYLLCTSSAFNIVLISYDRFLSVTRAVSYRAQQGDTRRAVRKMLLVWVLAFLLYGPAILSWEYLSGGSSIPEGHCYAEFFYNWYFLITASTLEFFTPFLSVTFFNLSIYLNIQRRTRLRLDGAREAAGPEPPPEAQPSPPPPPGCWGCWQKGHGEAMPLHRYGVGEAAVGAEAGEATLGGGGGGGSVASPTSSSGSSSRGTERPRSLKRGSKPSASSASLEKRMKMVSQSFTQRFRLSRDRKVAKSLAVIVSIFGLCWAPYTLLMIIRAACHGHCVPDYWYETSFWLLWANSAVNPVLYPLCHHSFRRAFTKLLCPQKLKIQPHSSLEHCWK
Chain of Sodium-dependent serotonin transporter (Homo sapiens, UniProt P31645) (P31645 whole entry): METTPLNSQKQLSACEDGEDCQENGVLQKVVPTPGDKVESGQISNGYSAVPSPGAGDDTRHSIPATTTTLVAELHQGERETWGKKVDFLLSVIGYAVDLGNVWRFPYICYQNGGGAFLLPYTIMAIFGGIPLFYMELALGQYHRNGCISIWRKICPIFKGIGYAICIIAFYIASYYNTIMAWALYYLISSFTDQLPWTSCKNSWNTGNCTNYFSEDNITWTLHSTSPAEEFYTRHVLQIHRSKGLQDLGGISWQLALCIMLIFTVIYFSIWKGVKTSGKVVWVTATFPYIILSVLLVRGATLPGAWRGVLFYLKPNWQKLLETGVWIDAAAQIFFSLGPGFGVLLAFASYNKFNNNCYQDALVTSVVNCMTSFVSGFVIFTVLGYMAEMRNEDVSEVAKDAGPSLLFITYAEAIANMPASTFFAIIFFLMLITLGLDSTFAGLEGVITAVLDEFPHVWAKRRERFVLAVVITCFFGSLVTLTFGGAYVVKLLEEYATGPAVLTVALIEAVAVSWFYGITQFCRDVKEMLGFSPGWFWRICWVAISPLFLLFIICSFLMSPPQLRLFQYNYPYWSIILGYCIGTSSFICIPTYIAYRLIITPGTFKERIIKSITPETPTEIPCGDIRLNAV
Chain of Sodium-dependent serotonin transporter (Rattus norvegicus, UniProt P31652) (P31652 whole entry): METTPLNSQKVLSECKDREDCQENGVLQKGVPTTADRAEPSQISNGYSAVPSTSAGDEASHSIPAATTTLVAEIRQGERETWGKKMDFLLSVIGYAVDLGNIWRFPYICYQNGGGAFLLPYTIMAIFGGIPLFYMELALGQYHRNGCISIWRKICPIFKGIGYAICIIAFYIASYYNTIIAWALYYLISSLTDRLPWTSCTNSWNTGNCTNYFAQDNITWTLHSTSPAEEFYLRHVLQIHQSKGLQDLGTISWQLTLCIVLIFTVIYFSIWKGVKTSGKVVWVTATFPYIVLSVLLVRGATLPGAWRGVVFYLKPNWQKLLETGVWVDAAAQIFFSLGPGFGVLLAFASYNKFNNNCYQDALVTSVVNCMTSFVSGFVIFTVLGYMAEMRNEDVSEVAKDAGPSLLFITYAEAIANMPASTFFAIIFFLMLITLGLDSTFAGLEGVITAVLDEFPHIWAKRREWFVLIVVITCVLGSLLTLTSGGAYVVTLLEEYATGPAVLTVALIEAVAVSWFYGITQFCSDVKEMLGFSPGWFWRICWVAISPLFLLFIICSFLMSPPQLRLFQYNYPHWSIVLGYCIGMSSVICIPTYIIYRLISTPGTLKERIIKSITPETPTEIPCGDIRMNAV
T2 sequence (P23975 whole entry): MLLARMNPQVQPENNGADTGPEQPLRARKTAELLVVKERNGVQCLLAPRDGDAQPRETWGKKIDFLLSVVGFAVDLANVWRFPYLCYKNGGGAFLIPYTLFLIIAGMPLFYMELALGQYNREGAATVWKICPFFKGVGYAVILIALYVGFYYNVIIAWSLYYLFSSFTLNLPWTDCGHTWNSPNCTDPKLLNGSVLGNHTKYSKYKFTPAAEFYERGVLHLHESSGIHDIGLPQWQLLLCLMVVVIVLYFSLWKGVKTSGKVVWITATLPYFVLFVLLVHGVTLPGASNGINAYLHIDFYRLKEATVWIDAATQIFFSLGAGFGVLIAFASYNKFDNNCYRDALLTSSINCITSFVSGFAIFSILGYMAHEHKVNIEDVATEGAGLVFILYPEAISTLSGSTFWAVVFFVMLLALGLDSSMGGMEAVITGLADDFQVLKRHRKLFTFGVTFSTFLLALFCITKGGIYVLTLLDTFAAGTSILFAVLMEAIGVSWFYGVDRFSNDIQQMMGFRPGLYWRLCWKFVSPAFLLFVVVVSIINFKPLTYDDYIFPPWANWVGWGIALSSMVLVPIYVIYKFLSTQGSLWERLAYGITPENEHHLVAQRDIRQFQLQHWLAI
Chain of Histamine H2 receptor (Homo sapiens) (P25021 whole entry): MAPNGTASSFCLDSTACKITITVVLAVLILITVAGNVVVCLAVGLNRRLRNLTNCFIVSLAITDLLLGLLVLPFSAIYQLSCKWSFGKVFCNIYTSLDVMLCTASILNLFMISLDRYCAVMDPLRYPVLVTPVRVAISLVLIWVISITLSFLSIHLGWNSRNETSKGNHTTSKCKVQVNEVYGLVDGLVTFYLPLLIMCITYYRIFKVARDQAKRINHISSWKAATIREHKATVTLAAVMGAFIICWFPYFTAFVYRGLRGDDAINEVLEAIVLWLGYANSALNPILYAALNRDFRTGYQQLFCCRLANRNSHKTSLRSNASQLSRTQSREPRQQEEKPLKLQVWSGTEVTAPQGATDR

As to `CN(C)CCC(Oc1ccccc1)c1ccc(C#CCCN2CCCCC2)cc1` (stereo not given), the inhibition constant (Ki) worked out at 6 nM in assay [1] and 1.3 nM on Histamine H3 receptor [2].

`CC(C)N1CCN(C(=O)c2ccc(C(CCN(C)C)Oc3ccc(C(F)(F)F)cc3)cc2)CC1` (stereo not given) came in with a Ki on Histamine H3 receptor [2] of 2.3 nM.

On to `CN(C)CCC(Oc1ccc([N+](=O)[O-])cc1)c1ccc(OCCCN2CCCCC2)cc1` (stereo not given), for which the Ki in assay [3] was 8.7 nM; in assay [1], 3.7 nM.

As to `CN(C)CCC(Oc1cccc(OCCCN2CCCCC2)c1)c1ccccc1` (stereo not given), in assay [3], the Ki turned out to be 1480 nM.

On to `CN(C)CCC(Oc1ccc(C(F)(F)F)cc1)c1ccc(OCCCN2CCCCC2)cc1` (stereo not given), for which the Ki in assay [1] stood at 10 nM; at Histamine H3 receptor [2] it was 2.7 nM.

`CN(C)CCC(Oc1ccccc1)c1ccc(OCCCN2CCCCC2)cc1` (stereo not given): the Activity in assay [4] was 66%; in assay [6] it was 73%. Moreover, the Ki turned out to be 201 nM in assay [5] and 0.6 nM on Histamine H3 receptor [2]. Further, the Kb on Histamine H3 receptor [7] was 0.501 nM.

In turn, `Cc1ccc(OC(CCN(C)C)c2ccc(OCCCN3CCCCC3)cc2)cc1` (stereo not given) gave a Ki on Histamine H3 receptor [2] of 0.7 nM.

`CN(C)CCC(Oc1ccc(C(F)(F)F)cc1)c1ccccc1` (stereo not given): the Ki in assay [3] turned out to be 8.3 nM; in assay [1] it was 7.7 nM; on Histamine H3 receptor [2] it was 6630 nM.

Take `CN(C)CCC(Oc1ccc(Cl)c(Cl)c1)c1ccc(OCCCN2CCCCC2)cc1` (stereo in doubt; 40): the Ki in assay [1] was determined as 7.7 nM.

Turning to `COc1cccc(OC(CCN(C)C)c2ccc(OCCCN3CCCCC3)cc2)c1` (stereo not given), the Ki in assay [1] amounted to 2 nM.

As to `CN(C)CCC(Oc1cccc(Cl)c1)c1ccc(OCCCN2CCCCC2)cc1` (stereo in doubt; 37), the figures for the Ki (in assay [3]; on Histamine H3 receptor [2]) were 2.7 nM and 0.9 nM, respectively.

In turn, `CN(C)CCC(Oc1ccc(Cl)c(Cl)c1)c1ccc(OCCCN2CCCCC2)cc1` (stereo in doubt; 39) registered a Ki in assay [1] of 7 nM.

With `CN(C)CCC(Oc1cccc(Br)c1)c1ccc(OCCCN2CCCCC2)cc1` (stereo not given), the Ki in assay [1] is 2.3 nM.

In assay [1], `CN(C)CCC(Oc1ccc(C#N)cc1)c1ccc(OCCCN2CCCCC2)cc1` (stereo not given) yielded a Ki of 7.7 nM.

`CN(C)CCC(Oc1ccc(Cl)cc1)c1ccc(OCCCN2CCCCC2)cc1` (stereo not given): the Ki in assay [1] was determined as 2.3 nM.

Take `COc1ccc(OC(CCN(C)C)c2ccc(OCCCN3CCCCC3)cc2)cc1` (stereo not given): the inhibition constant Ki at Histamine H3 receptor [2] was determined as 1 nM.

Take `CN(C)CCC(Oc1ccccc1)c1cccc(OCCCN2CCCCC2)c1` (stereo not given): at Histamine H3 receptor [2], the affinity, expressed as Ki, was 3.3 nM.

For `CN(C)CCC(Oc1cccc(Cl)c1)c1ccc(OCCCN2CCCCC2)cc1` (stereo in doubt; 38), the Ki came out at 21 nM in assay [3] and 0.9 nM at Histamine H3 receptor [2].

For `CN(C)CCC(Oc1ccc(Br)cc1)c1ccc(OCCCN2CCCCC2)cc1` (stereo not given), in assay [3], the affinity corresponds to a Ki of 9 nM.

On to `CC(C)N1CCN(C(=O)c2ccc(C(CCN(C)C)Oc3ccccc3)cc2)CC1` (stereo not given), for which the Ki in assay [1] is 63 nM; on Histamine H3 receptor [2], 0.8 nM.

In assay [1], `CC(C)N1CCC(Oc2ccc(C(CCN(C)C)Oc3ccccc3)cc2)CC1` (stereo not given) returned a Ki of 39 nM.

Regarding `CN(C)CCC(Oc1ccc(C(F)(F)F)cc1)c1ccc(C#CCCN2CCCCC2)cc1` (stereo not given), the Ki was determined as 33 nM in assay [1] and 5 nM on Histamine H3 receptor [2].

The record behind these values is ChEMBL document CHEMBL1139920, “Synthesis and biological evaluation of diamine-based histamine H3 antagonists with serotonin reuptake inhibitor activity” (Bioorg Med Chem Lett, 2007).
